Columns and labels:
[1] = tested on: hyperuricemic mice (高尿酸血症小鼠); experiment: 实验例2: effect of TAZ-3-16 on lowering blood uric acid in hyperuricemic (HUA) model mice (hypoxanthine plus potassium oxonate, repeated stimulation); assay type: in vivo; details: HUA model ICR mice, intragastric, n=10, compared with model control
[2] = tested on: acute hyperuricemic mice (急性高尿酸血症小鼠); experiment: 实验例3: effect of TAZ-3-19 on lowering blood uric acid in acute hyperuricemia model mice (hypoxanthine plus potassium oxonate); assay type: in vivo; details: acute hyperuricemia ICR mice, intragastric, n=10, compared with model control

SMILES: Clc1cc(-c2nc(-c3ccncc3)n[nH]2)cc(Cl)c1OCCCN1CCCCC1 [TAZ-3-16]
- blood uric acid level ([1]; 0.5 mg/kg once daily for 2 days): 明显降低

SMILES: CN1CCN(CCCOc2c(Cl)cc(-c3nc(-c4ccncc4)n[nH]3)cc2Cl)CC1 [TAZ-3-19]
- decrease of peak blood uric acid ([2]; 0.625 mg/kg): 5.7%
- decrease of peak blood uric acid ([2]; 1.25 mg/kg): 34.2%
- decrease of peak blood uric acid ([2]; 2.5 mg/kg): 68.0%

SMILES: Cc1nc(-c2ccc(OCC(C)C)c(C#N)c2)sc1C(=O)O [非布索坦, reference compound]
- blood uric acid level ([1]; 1 mg/kg once daily for 2 days): 明显降低

— patent publication CN113354616A, “二芳基-1,2,4-三唑类化合物及其制法和药物用途” (Institute of Materia Medica of CAMS and PUMC, priority 2020, dated 2021)
